Results published in PubChem BioAssay AID2060496 (Molecular Pharmacology Branch, DTP, NCI, 2025).

System: 276233-004-R-J1-PDC complex spheroid viability
Assay: Anticancer human tumor 276233-004-R-J1-PDC patient-derived colon adenocarcinoma cell line growth inhibition [GQUAD]
Settings: for IC50: curve of first compound; for viability, T/C: stronger effect = lower value
In short: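 Viability of tumor cells grown as complex spheroids with endothelial and stromal cells, exposed to drug combinations. Top concentration at or near clinical Cmax (else 10 microM), diluted in half-log increments.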
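Also: spheroids exposed to drugs for seven days.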
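For viability, T/C in this document: 100% = DMSO vehicle control viability.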

CCc1c2c(nc3ccc(O)cc13)-c1cc3c(c(=O)n1C2)COC(=O)[C@]3(O)CC + CN(C)c1ccc(Nc2c3ccc(NC(=O)CCN4CCCC4)cc3nc3cc(NC(=O)CCN4CCCC4)ccc23)cc1
IC50 (second compound 0.0316 µM): > 316 nM
IC50 (second compound 0.1 µM): > 316 nM
IC50 (second compound 0.316 µM): > 316 nM
IC50 (second compound 1 µM): > 316 nM
IC50 (second compound 3.16 µM): < 0.999 nM
IC50 (second compound 10 µM): < 0.999 nM
viability, T/C (second compound 0.0316 µM, first compound 0.000999 µM): 102%
viability, T/C (second compound 0.0316 µM, first compound 0.00316 µM): 104%
viability, T/C (second compound 0.0316 µM, first compound 0.00999 µM): 104%
viability, T/C (second compound 0.0316 µM, first compound 0.0316 µM): 105%
viability, T/C (second compound 0.0316 µM, first compound 0.0999 µM): 108%
viability, T/C (second compound 0.0316 µM, first compound 0.316 µM): 117%
viability, T/C (second compound 0.1 µM, first compound 0.000999 µM): 94.3%
viability, T/C (second compound 0.1 µM, first compound 0.00316 µM): 84.9%
viability, T/C (second compound 0.1 µM, first compound 0.00999 µM): 101%
viability, T/C (second compound 0.1 µM, first compound 0.0316 µM): 107%
viability, T/C (second compound 0.1 µM, first compound 0.0999 µM): 99.7%
viability, T/C (second compound 0.1 µM, first compound 0.316 µM): 117%
viability, T/C (second compound 0.316 µM, first compound 0.000999 µM): 60.1%
viability, T/C (second compound 0.316 µM, first compound 0.00316 µM): 71.1%
viability, T/C (second compound 0.316 µM, first compound 0.00999 µM): 75.7%
viability, T/C (second compound 0.316 µM, first compound 0.0316 µM): 76.4%
viability, T/C (second compound 0.316 µM, first compound 0.0999 µM): 79.5%
viability, T/C (second compound 0.316 µM, first compound 0.316 µM): 91.8%
viability, T/C (second compound 1 µM, first compound 0.000999 µM): 60.3%
viability, T/C (second compound 1 µM, first compound 0.00316 µM): 50.9%
viability, T/C (second compound 1 µM, first compound 0.00999 µM): 67.2%
viability, T/C (second compound 1 µM, first compound 0.0316 µM): 71.6%
viability, T/C (second compound 1 µM, first compound 0.0999 µM): 70%
viability, T/C (second compound 1 µM, first compound 0.316 µM): 89.7%
viability, T/C (second compound 3.16 µM, first compound 0.000999 µM): 50.8%
viability, T/C (second compound 3.16 µM, first compound 0.00316 µM): 46.4%
viability, T/C (second compound 3.16 µM, first compound 0.00999 µM): 72.6%
viability, T/C (second compound 3.16 µM, first compound 0.0316 µM): 70.8%
viability, T/C (second compound 3.16 µM, first compound 0.0999 µM): 75.3%
viability, T/C (second compound 3.16 µM, first compound 0.316 µM): 70.4%
viability, T/C (second compound 10 µM, first compound 0.000999 µM): 44%
viability, T/C (second compound 10 µM, first compound 0.00316 µM): 55.1%
viability, T/C (second compound 10 µM, first compound 0.00999 µM): 59.1%
viability, T/C (second compound 10 µM, first compound 0.0316 µM): 65.9%
viability, T/C (second compound 10 µM, first compound 0.0999 µM): 78.5%
viability, T/C (second compound 10 µM, first compound 0.316 µM): 76.4%
